This passage reports IC50, EC50 and AC50 results from ChEMBL document CHEMBL1201862, “PubChem BioAssay data set” (2004).

Calls of active or inactive are those of the source.

The target of one assay is Beta-galactosidase (Escherichia coli, UniProt Q8VNN2). Briefly: Dose response counterscreen for EBI2 assay utilizing the enzyme, b-galactosidase. The format is functional. In general terms: Counterscreens check selectivity or assay interference.
Assay [1] concerns the target T1, Heat shock factor protein 1 (Mus musculus, UniProt P38532).
T1 sequence (P38532 whole entry): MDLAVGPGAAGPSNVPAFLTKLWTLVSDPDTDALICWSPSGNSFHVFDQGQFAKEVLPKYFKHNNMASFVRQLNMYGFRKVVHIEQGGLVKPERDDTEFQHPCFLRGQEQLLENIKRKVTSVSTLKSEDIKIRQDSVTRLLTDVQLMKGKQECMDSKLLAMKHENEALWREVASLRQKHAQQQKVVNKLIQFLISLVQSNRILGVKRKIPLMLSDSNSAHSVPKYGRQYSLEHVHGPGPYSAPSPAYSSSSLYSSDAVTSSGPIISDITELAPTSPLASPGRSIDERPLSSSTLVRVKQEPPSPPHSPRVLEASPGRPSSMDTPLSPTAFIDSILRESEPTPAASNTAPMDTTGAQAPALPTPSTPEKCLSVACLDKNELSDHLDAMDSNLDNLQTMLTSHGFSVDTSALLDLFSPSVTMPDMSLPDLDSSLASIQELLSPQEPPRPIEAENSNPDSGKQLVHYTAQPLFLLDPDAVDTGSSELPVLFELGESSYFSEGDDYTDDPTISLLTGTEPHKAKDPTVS
Briefly: inhibition of MG132-induced HSE-luciferase signal, confirmation, cell-based, NIH3T3, luminescence, dose retest (AID 2382).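 Note: NIH3T3 fibroblasts with HSF1-driven luciferase reporter stressed by proteasome inhibitor MG132; luminescence from HSF1-driven luciferase expression after 8 hours of MG132 stress.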 Type of assay: functional.

For assay [2], the target named is T2, Interleukin-8 (Homo sapiens, UniProt P10145).
T2 sequence (P10145 whole entry): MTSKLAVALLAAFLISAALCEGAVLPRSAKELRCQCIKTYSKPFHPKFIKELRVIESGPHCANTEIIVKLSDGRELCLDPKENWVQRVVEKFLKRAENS
In words: Dose Response confirmation of uHTS small molecule hits for cystic fibrosis induced NFkb Inhibitors in a PAF-induced IL8 counterscreen. To be noted: read-out: IC50_Mean. Type of assay: functional.

For assay [3], the target named is T2, Interleukin-8. In words: Dose Response confirmation of uHTS small molecule hits for cystic fibrosis induced NFkb Inhibitors in a TNFa-induced IL8 counterscreen. Type of assay: functional. The following applies: read-out: IC50_Mean.
A further assay has as its system HEK293. In words: HEK293T cell cytotoxicity, dose response, cytotoxicity control, ATP luminescence, cherry-pick samples (AID 687005).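 Note: cells exposed to compound for 48 hours.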 Type of assay: functional, cell-based. To be noted: Homo sapiens.
In another assay the test system is HeLa. In words: HeLa cell cytotoxicity, dose response, cytotoxicity control, ATP luminescence, cherry-pick samples (AID 687004). The format is functional, cell-based. To be noted: Homo sapiens.
Assay [4] in a line: HEK293 Cytotoxicity Assay Measured in Cell-Based System Using Plate Reader - 7071-01_Inhibitor_Dose_CherryPick_Activity_Set2. Type of assay: functional.
Assay [5] is described as follows: T. cruzi growth inhibition in host cells, dose response, cell-based, plate reader, dry powder, set 2 (AID 652275). Type of assay: functional.
The target in assay [6] is T3, Beta-2 adrenergic receptor (Homo sapiens, UniProt P07550). Briefly: beta2AR agonists driving receptor internalization, dose response, cell-based, FAP fluorogen, flow cytometry, cherry pick 1 (AID 588763). Type of assay: functional. In general terms: Flow cytometry measures light scatter and fluorescence of single cells or particles in a stream.
T3 sequence (P07550 whole entry): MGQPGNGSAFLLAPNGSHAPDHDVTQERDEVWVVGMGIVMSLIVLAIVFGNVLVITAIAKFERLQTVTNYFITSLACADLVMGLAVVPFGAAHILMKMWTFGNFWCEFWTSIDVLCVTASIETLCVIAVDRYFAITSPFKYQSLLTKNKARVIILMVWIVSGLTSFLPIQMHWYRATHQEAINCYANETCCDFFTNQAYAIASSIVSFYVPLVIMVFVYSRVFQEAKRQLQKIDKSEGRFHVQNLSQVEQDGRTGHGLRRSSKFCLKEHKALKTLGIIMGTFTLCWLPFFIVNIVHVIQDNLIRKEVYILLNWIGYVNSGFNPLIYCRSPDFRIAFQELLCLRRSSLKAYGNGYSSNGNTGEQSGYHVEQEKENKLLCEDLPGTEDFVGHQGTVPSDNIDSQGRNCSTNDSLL
In assay [7] the target is T3, Beta-2 adrenergic receptor. In words: Dose response for HTS for Beta-2AR agonists via FAP method from Powderset1. Type of assay: functional.
The test system of a further assay is Cryptococcus neoformans. In words: PubChem AID 686997. The format is functional, organism-based.
The nature of assay [8]: cells. Type of assay: functional, cell-based.
A short description of assay [9]: cells. The format is functional, cell-based. The source holds these as a separate data set.
The next assay concerns INS1. Briefly: beta cell apoptosis inhibitors, cytokine rescue, dose response, luminescence, retest (AID 449756).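 Note: cell death triggered by IL-1 beta plus TNF-alpha plus IFN-gamma mixture; protective hits raise ATP signal compared with cytokine alone wells.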 Type of assay: functional, cell-based. The following applies: Rattus norvegicus.
Assay [10] is described as follows: human group III sPLA2 inhibitors, dose response, biochemical, QFRET, IC50 (AID 743457).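 Note: green fluorescence rise as the enzyme cleaves BODIPY PC-A2 in liposomes; potency for inhibition of the enzyme.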
Assay [11] in a line: HEK293T cytotoxicity, dose response, cytotoxicity control for miR-122 modulator project, cell-based, inhibitor set, cherry-pick, set 2 (AID 720697). The format is functional.

Sequence of Beta-galactosidase (Q8VNN2 whole entry): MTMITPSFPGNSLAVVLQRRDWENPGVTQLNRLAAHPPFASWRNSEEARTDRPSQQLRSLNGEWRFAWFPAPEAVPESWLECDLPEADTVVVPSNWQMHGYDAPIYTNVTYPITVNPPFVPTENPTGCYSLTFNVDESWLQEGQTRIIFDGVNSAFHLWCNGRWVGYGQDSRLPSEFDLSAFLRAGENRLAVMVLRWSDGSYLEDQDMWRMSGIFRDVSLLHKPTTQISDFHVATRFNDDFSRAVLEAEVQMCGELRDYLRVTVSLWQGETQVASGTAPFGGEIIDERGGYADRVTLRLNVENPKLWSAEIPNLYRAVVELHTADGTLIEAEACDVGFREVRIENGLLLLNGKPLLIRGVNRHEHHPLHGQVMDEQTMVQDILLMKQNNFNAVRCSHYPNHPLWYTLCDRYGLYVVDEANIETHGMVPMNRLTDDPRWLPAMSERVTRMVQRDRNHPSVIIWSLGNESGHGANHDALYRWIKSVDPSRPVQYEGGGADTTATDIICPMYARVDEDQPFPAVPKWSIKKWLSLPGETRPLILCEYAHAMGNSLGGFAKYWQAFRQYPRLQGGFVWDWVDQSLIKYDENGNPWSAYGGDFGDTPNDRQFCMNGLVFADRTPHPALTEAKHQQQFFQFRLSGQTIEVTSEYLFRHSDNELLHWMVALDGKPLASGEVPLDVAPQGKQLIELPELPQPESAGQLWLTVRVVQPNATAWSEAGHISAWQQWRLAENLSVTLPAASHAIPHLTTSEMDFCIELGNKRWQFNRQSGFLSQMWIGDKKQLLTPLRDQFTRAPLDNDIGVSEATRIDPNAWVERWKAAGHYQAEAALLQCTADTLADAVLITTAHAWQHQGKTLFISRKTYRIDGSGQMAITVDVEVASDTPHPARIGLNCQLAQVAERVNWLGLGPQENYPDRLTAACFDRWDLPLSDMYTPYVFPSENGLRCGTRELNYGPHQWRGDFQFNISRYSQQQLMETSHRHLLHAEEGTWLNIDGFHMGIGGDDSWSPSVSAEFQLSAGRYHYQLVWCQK

`O=C(/C=C/c1ccc(Cl)cc1)N1CCN(c2c(Cl)cccc2[N+](=O)[O-])CC1`: the IC50 on Beta-galactosidase was > 80 µM (inactive).

As usually defined, the EC50 is the concentration at which the effect is half-maximal. As for `CCN(c1ccc(OC)cc1)c1[nH]cnc2ncnc1-2`, the 50% effective concentration (EC50) in assay [1] was 21.8 µM (active). Also, the IC50 was 14.5 µM (inactive) at Interleukin-8 [2] and > 79 µM (inactive) at Interleukin-8 [3].

By AC50 is commonly meant the concentration at which the activity in the assay is half-maximal. Consider `C[C@@H]1CN([C@H](C)CO)C(=O)c2c(c3ccccc3n2C)-c2ccccc2CO[C@H]1CN(C)S(=O)(=O)c1ccc(Cl)cc1`, for which the AC50 is 23.1 µM (active) in the assay on HEK293, > 47 µM (inactive) in the assay on HeLa and 23.1 µM (active) in [4].

Turning to `CN1CCCCN2[C@@H](CO)[C@H](c3ccc(Br)cc3)[C@@H]2C1`, the AC50 in assay [5] was 16 µM (active).

For `CN(CC(=O)N1CCN(c2ccccn2)CC1)S(=O)(=O)c1ccccc1`, the EC50 in assay [6] is 274 nM (active); in assay [7], 43.5 nM (active).

On to `COC(=O)C1=C(C)N(Cc2ccc(F)cc2)C(=S)NC1c1ccccc1` (stereo unspecified), for which, in the assay on Cryptococcus neoformans, the AC50 is > 76 µM (inactive).

`CCOC(=O)N1CCN(S(=O)(=O)c2ccc(C(=O)NNc3nc4c(C)cc(C)cc4s3)cc2)CC1`: the EC50 is > 350 µM (not active) in “cells [8]” and 14.5 µM (active) in the assay “cells [9]”. In addition, the AC50 in the assay on INS1 was 4.46 µM (active). The IC50 in [10] is 24.6 µM (inactive).

For the compound `CCCC(=O)Nc1ccc2c(c1)C(=O)N(C)[C@@H]1CC[C@H](CC(=O)NCC(F)(F)F)O[C@H]1CO2`, in assay [11], the AC50 is 2.15 µM (active).
